Test in all cases: ≥ marks a high value that may be exact or a test limit, other limits are often not marked, values filed in µg/mL are converted to µM
Experiment [1] deals with Escherichia coli BL21.
For experiment [2], the system named is Streptococcus pyogenes M1T1 5448.
In experiment [3] the test system is Pseudomonas aeruginosa PAO1.
Experiment [4] concerns Escherichia coli NCTC 10418.
Experiment [5] deals with Staphylococcus aureus NCTC 12981.
The test system of experiment [6] is Rhodococcus rhodochrous X15.
Experiment [7] relates to Staphylococcus carnosus KHS.
Experiment [8] concerns Psychrobacter faecalis X29.
Experiment [9] concerns Staphylococcus aureus ATCC 2592.
Experiment [10] concerns Bacillus licheniformis X39.
Experiment [11] relates to Listeria monocytogenes 10403s.
Experiment [12] relates to Staphylococcus epidermidis ATCC 12228.
Experiment [13] concerns Acinetobacter baumannii.
In experiment [14] the test system is Pseudomonas aeruginosa ATCC 27853.
Experiment [15] concerns Salmonella enterica subsp. enterica serovar Typhimurium ATCC 13311.
In experiment [16] the test system is Enterococcus faecalis ATCC 29212.
Experiment [17] concerns Bacillus cereus ATCC 11778.
For experiment [18], the system named is Vibrio cholerae O1 Inaba.
Experiment [19] deals with Shigella sonnei ATCC 11060.
Experiment [20] concerns Escherichia coli O157:H7.
In experiment [21] the test system is Staphylococcus aureus ATCC 25923.
Experiment [22] deals with Escherichia coli ATCC 25922.
Experiment [23] deals with Salmonella enterica subsp. enterica serovar Enteritidis.
Experiment [24] has as its system Listeria innocua.
The subject of experiment [25] is Micrococcus luteus A270.
Experiment [26] concerns Escherichia coli.
For experiment [27], the system named is Micrococcus luteus ATCC 9341.
Experiment [28] deals with Pseudomonas aeruginosa H1001.

≈ marks a conversion by molar mass, not a printed value. A value given as a limit tells only on which side of the number the result lay.

Take `CC[C@H](C)[C@H](NC(=O)[C@H](CCCCN)NC(=O)[C@H](CCCCN)NC(=O)[C@H](CCCCN)NC(=O)[C@H](CC(C)C)NC(=O)[C@H](CCCN=C(N)N)NC(=O)[C@H](CCC(N)=O)NC(=O)[C@H](Cc1ccccc1)NC(=O)[C@@H](NC(=O)[C@@H](NC(=O)[C@H](CCC(=O)O)NC(=O)[C@H](CCCCN)NC(=O)CNC(=O)[C@H](C)N)[C@@H](C)O)[C@@H](C)CC)C(=O)N[C@@H](CCC(N)=O)C(=O)N[C@@H](CCC(=O)O)C(=O)N[C@@H](CCCCN)C(=O)N[C@@H](Cc1c[nH]c2ccccc12)C(=O)N[C@@H](CCCCN)C(=O)N[C@@H](CCCN=C(N)N)C(=O)N[C@@H](C)C(=O)N[C@H](C(=O)N[C@H](C(=O)N[C@@H](C)C(=O)N[C@@H](Cc1c[nH]c2ccccc12)C(=O)O)[C@@H](C)CC)[C@@H](C)O` [AGKETIFQRLKKKIQEKWKRATIAW]: the MIC in experiment [1] is 1 µM (≈ 3.06 µg/mL); in experiment [2], 4 µM (≈ 12.2 µg/mL); in experiment [3], 16 µM (≈ 48.9 µg/mL).

Take `CC[C@H](C)[C@H](NC(=O)[C@H](CCC(=O)O)NC(=O)[C@H](CCCN=C(N)N)NC(=O)[C@H](CCCN=C(N)N)NC(=O)[C@H](CC(C)C)NC(=O)[C@H](Cc1ccc(O)cc1)NC(=O)[C@H](CCCCN)NC(=O)[C@H](C)NC(=O)[C@@H](NC(=O)[C@@H](NC(=O)[C@H](CCC(N)=O)NC(=O)[C@H](CCCN=C(N)N)NC(=O)[C@H](Cc1c[nH]c2ccccc12)NC(=O)[C@H](C)N)[C@@H](C)O)[C@@H](C)CC)C(=O)N[C@@H](CCCN=C(N)N)C(=O)N[C@@H](CCCCN)C(=O)N[C@@H](CCCN=C(N)N)C(=O)NCC(=O)N[C@@H](CCCN=C(N)N)C(=O)N[C@@H](CCCCN)C(=O)N[C@@H](C)C(=O)N[C@H](C(=O)N[C@H](C(=O)N[C@@H](C)C(=O)N[C@@H](Cc1c[nH]c2ccccc12)C(=O)O)[C@@H](C)CC)C(C)C` [AWRQTIAKYLRREIRKRGRKAVIAW]: the values for the minimal inhibitory concentration (MIC) in experiment [1], in experiment [2] and in experiment [3] were 1 µM (≈ 3.13 µg/mL), 4 µM (≈ 12.5 µg/mL) and 4 µM (≈ 12.5 µg/mL), respectively.

For the compound `NC(=O)[C@H](Cc1ccccc1)NC(=O)[C@H](CCCN=C(N)N)NC(=O)[C@H](Cc1ccccc1)NC(=O)[C@H](CCCN=C(N)N)NC(=O)[C@@H](N)Cc1ccccc1` [FRFRF], the minimum inhibitory concentration (MIC) in experiment [4] and in [5] was at least 166 µM throughout.

With `CC[C@H](C)[C@H](NC(=O)CN)C(=O)N[C@@H](Cc1ccccc1)C(=O)N[C@@H](CO)C(=O)N[C@@H](CC(C)C)C(=O)N[C@@H](Cc1ccccc1)C(=O)N[C@@H](CCCCN)C(=O)N[C@@H](C)C(=O)NCC(=O)N[C@@H](C)C(=O)N[C@@H](CCCCN)C(=O)N[C@@H](Cc1ccccc1)C(=O)N[C@@H](Cc1ccccc1)C(=O)NCC(=O)N[C@@H](CCCCN)C(=O)N[C@@H](Cc1cnc[nH]1)C(=O)N[C@@H](CC(C)C)C(=O)N[C@@H](CC(C)C)C(=O)N[C@@H](CCCCN)C(=O)N[C@@H](CCC(N)=O)C(=O)N[C@@H](C)C(=O)NCC(=O)N[C@@H](CCCCN)C(=O)N[C@@H](C)C(=O)NCC(=O)N[C@@H](C)C(=O)N[C@@H](CCC(=O)O)C(=O)N[C@@H](Cc1cnc[nH]1)C(=O)N[C@@H](CC(C)C)C(=O)N[C@@H](C)C(=O)N[C@H]1CSSC[C@@H](C(=O)O)NC(=O)[C@H](CCC(N)=O)NC(=O)[C@H](CC(N)=O)NC(=O)[C@H]([C@@H](C)O)NC(=O)[C@H](C)NC(=O)[C@H](CCCCN)NC1=O` [GIFSLFKAGAKFFGKHLLKQAGKAGAEHLACKATNQC], the MIC in experiment [6] stood at 0.8 µM (≈ 3.11 µg/mL); in experiment [7] it was 3.2 µM (≈ 12.4 µg/mL); in experiment [8], 1.6 µM (≈ 6.22 µg/mL); in experiment [9], 1.6 µM (≈ 6.22 µg/mL); in [10] it was 3.2 µM (≈ 12.4 µg/mL).

Turning to `CC[C@H](C)[C@H](NC(=O)[C@H](CC(=O)O)NC(=O)[C@H](Cc1ccccc1)NC(=O)[C@H](CC(C)C)NC(=O)CN)C(=O)N[C@H](C(=O)N[C@@H](CCCCN)C(=O)N[C@@H](CCCCN)C(=O)N[C@H](C(=O)N[C@@H](C)C(=O)NCC(N)=O)C(C)C)C(C)C` [GLFDIVKKVAG], the MIC is at least 218 µM in [11]; above 218 µM in [12]; at least 218 µM in [13]; above 218 µM in experiment [14]; at least 218 µM in experiment [15]; above 218 µM in [16]. The MIC in experiment [17] was at least 218 µM; in [18], at least 218 µM; in experiment [19], at least 218 µM; in [20], at least 218 µM; in experiment [21], above 218 µM; in experiment [22] it was above 218 µM.

`CC[C@H](C)[C@H](NC(=O)[C@H](CCCN=C(N)N)NC(=O)[C@H](CCCCN)NC(=O)[C@H](C)NC(=O)[C@@H](NC(=O)[C@@H](N)CCCCN)[C@@H](C)CC)C(=O)N[C@@H](Cc1c[nH]c2ccccc12)C(=O)N[C@@H](CCCCN)C(=O)N[C@H](C(=O)N[C@@H](CC(C)C)C(=O)N[C@@H](CCCN=C(N)N)C(=O)N[C@@H](CCCN=C(N)N)C(=O)N[C@@H](CCCN=C(N)N)C(=O)N[C@@H](CC(C)C)C(=O)N[C@@H](Cc1ccccc1)C(=O)N[C@@H](CCCN=C(N)N)C(=O)N[C@@H](CCCN=C(N)N)C(=O)N[C@H](C(=O)N[C@@H](CCCCN)C(=O)N[C@@H](CCCCN)C(=O)N[C@H](C(=O)N[C@@H](C)C(=O)NCC(N)=O)C(C)C)C(C)C)[C@@H](C)CC` [KIAKRIWKILRRRLFRRVKKVAG]: the MIC in experiment [11] came out at 1.35 µM (≈ 3.91 µg/mL); in experiment [12] it was 1.35 µM (≈ 3.91 µg/mL); in experiment [13], 2.7 µM (≈ 7.81 µg/mL); in [14] it was 2.7 µM (≈ 7.81 µg/mL); in experiment [15], 2.7 µM (≈ 7.81 µg/mL); in experiment [16], 10.8 µM (≈ 31.2 µg/mL). In addition, the minimum inhibitory concentration (MIC) was 2.7 µM (≈ 7.81 µg/mL) in experiment [17]; 2.7 µM (≈ 7.81 µg/mL) in experiment [18]; 1.35 µM (≈ 3.91 µg/mL) in [19]; at least 86.4 µM in experiment [20]; 5.4 µM (≈ 15.6 µg/mL) in [21]; 5.4 µM (≈ 15.6 µg/mL) in [22].

Take `C[C@@H](O)[C@H](NC(=O)[C@H](CCCCN)NC(=O)[C@@H](NC(=O)[C@@H](NC(=O)[C@@H]1CCCN1)[C@@H](C)O)[C@@H](C)O)C(=O)N[C@@H](Cc1ccc(O)cc1)C(=O)N[C@@H](Cc1ccccc1)C(=O)N1CCC[C@H]1C(=O)N[C@@H](Cc1cnc[nH]1)C(=O)N[C@@H](Cc1ccccc1)C(=O)O` [PTTKTYFPHF]: the MIC stood at 9 µM (≈ 11.1 µg/mL) in [23], 1 µM (≈ 1.24 µg/mL) in [24], 1 µM (≈ 1.24 µg/mL) in [25] and 9 µM (≈ 11.1 µg/mL) in experiment [26].

Consider `NC(=O)[C@H](CCCN=C(N)N)NC(=O)[C@H](CCCN=C(N)N)NC(=O)[C@H](Cc1c[nH]c2ccccc12)NC(=O)[C@@H]1CCCN1C(=O)[C@H](Cc1c[nH]c2ccccc12)NC(=O)[C@H](Cc1c[nH]c2ccccc12)NC(=O)[C@@H]1CCCN1` [PWWPWRR], for which the minimum inhibitory concentration (MIC) in experiment [27] is 3.1 µM (≈ 3.36 µg/mL); in experiment [28], at least 231 µM.

As to `CC(C)C[C@H](NC(=O)[C@H](CCCN=C(N)N)NC(=O)[C@@H]1CCCN1C(=O)[C@H](CCCN=C(N)N)NC(=O)[C@H](CCCN=C(N)N)NC(=O)[C@@H]1CCCN1C(=O)[C@@H](N)CCCN=C(N)N)C(=O)N1CCC[C@H]1C(=O)N[C@@H](Cc1c[nH]c2ccccc12)C(N)=O` [RPRRPRLPW], the MIC in experiment [4] and in experiment [5] was at least 104 µM each time.

On to `CC[C@H](C)[C@H](NC(=O)[C@H](CCCN=C(N)N)NC(=O)[C@H](Cc1ccc(O)cc1)NC(=O)[C@H](Cc1c[nH]c2ccccc12)NC(=O)[C@H](CCCN=C(N)N)NC(=O)[C@@H](NC(=O)[C@@H](N)CCCN=C(N)N)C(C)C)C(=O)N[C@@H](Cc1ccccc1)C(=O)N[C@@H](Cc1ccc(O)cc1)C(N)=O` [RVRWYRIFY], for which the minimal inhibitory concentration (MIC) in experiment [28] came to 1.47 µM (≈ 2 µg/mL).

One may read the MIC as the lowest concentration found to suppress growth. A low value points to a more susceptible organism.

These data come from DBAASP.
